Data taken from paper PMC6455008, “Methylation at the C-3′ in D-Ring of Strigolactone Analogs Reduces Biological Activity in Root Parasitic Plants and Rice” (Frontiers in Plant Science, 2019).
Read-outs that look alike come from different tables or passages of the source.

Tests used:
S. hermonthica seeds = assay: Parasitic seed germination bioassay, Striga; type: in vivo, Striga hermonthica; settings: for Striga germination rate: 1.0 μM, formulated and non-formulated, 24 h at 30°C; for EC50: Striga hermonthica
Protocol: Germination activity of SL analogs on S. hermonthica and P. aegyptiaca seeds was tested by following the procedure described before ([Jamil et al., 2012]). The preconditioned Striga and Phelipanche seeds were treated with 50 μl of each SL analog solution at a concentration range (10^−5–10^−12 M). GR24 and sterile MilliQ water were included as positive and negative controls, respectively. The treated seeds were allowed to germinate in the dark for 24 h at 30°C (for Striga) and for 1 week at 25°C (for Phelipanche). The germinated and non-germinated seeds were counted under a binocular microscope, and germination rate (in %) was calculated.
Collected data were analyzed statistically using statistical software package R (version 3.2.2).

ShHTL7 = biological target: T1, ShHTL7 (Striga hermonthica, UniProt A0A0M3PNA2); assay: In vitro YLG hydrolysis competition assay, ShHTL7; type: biochemical; settings: 3.0 μM protein, 1.0 μM YLG, 60 min, room temperature; read-out: IC50, competitive inhibition of ShHTL7-mediated YLG hydrolysis
T1 sequence (A0A0M3PNA2 1-271): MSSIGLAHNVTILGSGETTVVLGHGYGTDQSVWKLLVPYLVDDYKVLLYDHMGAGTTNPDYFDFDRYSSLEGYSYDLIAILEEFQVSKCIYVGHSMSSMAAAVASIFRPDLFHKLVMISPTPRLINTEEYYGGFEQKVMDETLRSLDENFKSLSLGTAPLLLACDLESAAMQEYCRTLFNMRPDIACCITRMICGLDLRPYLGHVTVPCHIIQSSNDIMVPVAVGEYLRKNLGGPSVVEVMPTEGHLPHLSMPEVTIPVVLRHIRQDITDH
Protocol: Protein expression and purification of ShHTL7 and Oryza sativa D14 (OsD14) was carried out according to the procedure described earlier ([Jamil et al., 2018]). In vitro Yoshimulactone Green (YLG) hydrolysis assays ([Tsuchiya et al., 2015]) were carried out using 3.0 μM of protein ShHTL7 and OsD14 in a reaction buffer (1X PBS buffer, pH 7.3) with 0.1% DMSO at a 100-μl volume on a 96-well black plate (Greiner). For competitive assays, rac-GR24, AR8, MP13, and MP26 (at range between 0.01 and 50 μM) were co-incubated with 1.0 μM of YLG (Tokyo Chemical Industry Co. Ltd., product number E1238) for 60 min at room temperature. Fluorescent intensity was measured by spectraMax i5 (Molecular Devices) at excitation by 480 nm and detection by 520 nm. The change in fluorescence observed over the course of 1 h of YLG in buffer without protein was subtracted from the data collected in presence of protein. IC50 values were calculated by GraphPad (Prism 7).

Arabidopsis seedlings [1] = assay: Arabidopsis lateral root density assay; type: in vivo; settings: compared to control seedlings; for inhibition of lateral root density: 1.0 μM
Protocol: (§1) The sterilized Arabidopsis seeds were grown in petri plates that were first kept at 4°C in darkness for 3 days. For hypocotyl study, the petri plates were exposed to continuous white light for 24 h, then transferred to continuous monochromatic red light (20 μmol m^−2 s^−1, 22°C) conditions for another 4 days. For lateral root density, the plates were vertically grown at 22°C in Percival incubator under long day conditions (16 h at 22°C/8 h at 16°C day/night, 60% relative humidity, 60–70 μmol m^−2 s^−1 white light) for 8 days. After scanning, the hypocotyl length and number of lateral roots were recorded using publicly available ImageJ software.^1

rice d10 mutant = assay: Rice micro tillering bioassay (d10 mutant, hydroponic); type: in vivo; settings: for number of tillers per plant: SL-deficient d10 mutant, hydroponic, twice a week up to 3 weeks, untreated d10 six tillers; for inhibition at 2.5 µM: Oryza sativa, read-out: tillering inhibition
Protocol: Rice seeds (d10) were sterilized with 2.5% sodium hypochlorite for 15 min. After thorough washing with sterile MilliQ water, the seeds were kept in water for 2 days at 30°C in the dark for imbibition and pre-germination. The pre-germinated seeds were then transferred to moist filter paper in 90-mm petri plates and incubated at 30°C overnight. The plates with germinated seeds were then shifted in a growth cabinet with fluorescent white light (130–180 μM m^−2 s^−1) for 1 week. Seven days-old seedlings were moved to 50-ml falcon tubes (one seedling per tube) containing modified half-strength Hoagland nutrient solution in greenhouse. After 1 week, rice plants were treated with 2.5 μM of each SL analog. Mock and GR24 (2.5 μM) were included as control treatments. Six applications of each SL analog were done two times in a week. After 3 weeks of application, number of tillers per plant, plant height, and fresh biomass were measured at final harvest.

Arabidopsis seedlings [2] = assay: Arabidopsis hypocotyl elongation assay; type: in vivo; settings: compared to control seedlings; for inhibition of hypocotyl growth (reduction in hypocotyl length): 1.0 μM
Protocol: as §1

[3] = Stability of SL analogs in aqueous solution by HPLC; type: physicochemical; settings: pH 6.8, 3-day intervals up to 3 weeks
Protocol: The SL analogs GR24, AR8, MP13, and MP26 were first tested for their stability by high-performance liquid chromatography (HPLC) in an aqueous solution (50 μgml^−1, pH, 6.8) by adopting the previously described procedure with minor modifications ([Jamil et al., 2018]). Each compound (1 mg) was dissolved in 1-ml acetone, and then […] out of the analog solution were diluted with 150 μl ethanol and 750 μl water. Thereafter, 25 μl Indanol (1 mg ml^−1, internal standard) was spiked in 975-μl test solution. The time course of degradation was monitored by ultra-performance liquid chromatography (UPLC) analysis using a Zorbax Eclipse XDB-C18 column (3.5 μm, 4.6 mm× 150 mm), eluted first by 5% acetonitrile in water for 0.5 min, then by a gradient flow from 5 to 100% acetonitrile within 17.5 min, and by 100% acetonitrile for 5 min. The column was operated at 40°C with a flow rate of 0.35 ml min^−1, and the temperature of auto-sampler was set at 21°C. Compounds eluted from the column were detected with a photodiode array detector, and the relative quantity of non-degraded amount was calculated by integrating corresponding peak areas and comparison with the internal standard Indanol. Stability was monitored at 3-day intervals up to 3 weeks.

Striga seeds = assay: Stability of formulated SL analogs in sand (Striga germination readout); type: physicochemical, Striga hermonthica; settings: 1.0 μM; for Striga seed germinating activity before incubation in sand: no incubation
Protocol: The stability of formulated SL analogs was further tested in sand culture. About 1.5 ml of silver sand was added in each of 6 wells of 24-well plates. Then, 800 μl of formulated SL analogs (1.0 μM) was added in each of the six wells. The plates were sealed firmly with para-film, wrapped in aluminum foil, and placed at 30°C from day 1 to day 7. After 7 days, glass fiber discs containing preconditioned Striga seeds were placed on the top of each of the six wells and incubated in the dark at 30°C for 24 h. The germinated and non-germinated seeds were counted from each disc. In addition, the viability of formulated SL analogs was also tested in aqueous solution for 7 weeks at 30°C. About 800-μl aqueous solution of formulated SL analogs (1.0 μM) was added in a black Eppendorf tube weekly up to 6 weeks and incubated at 30°C. On the seventh week, about 50 μl of each analog was applied on a glass fiber disc containing preconditioned Striga seed and put again in the dark in sealed petri plates at 30°C for 24 h. Germinated and non-germinated seeds were counted from each disc.

[4] = read-out: EC50 Striga seed germination, formulated
[5] = read-out: EC50 Striga seed germination, non-formulated

Row | SMILES | Striga germination rate (S. hermonthica seeds) | EC50 (S. hermonthica seeds; [4]) [µM] | EC50 (S. hermonthica seeds; [5]) [µM] | IC50 (ShHTL7) [µM] | inhibition of lateral root density (Arabidopsis seedlings [1]) | number of tillers per plant (rice d10 mutant; 2.5 μM) [tillers per plant] | inhibition of hypocotyl growth (reduction in hypocotyl length) (Arabidopsis seedlings [2]) | stability by HPLC (relative amount of non-degraded analog) [3] | Striga seed germinating activity after 1 day in sand (Striga seeds; sand, 30°C) | inhibition at 2.5 µM (rice d10 mutant) [%] | Striga seed germinating activity before incubation in sand (Striga seeds) | Striga seed germinating activity after 2 days in sand (Striga seeds; sand, 30°C, 2 days) | inhibition at 1 µM (Arabidopsis seedlings [1]; Arabidopsis thaliana) [%] | plant height compared to mock (rice d10 mutant; d10 mutant, 2.5 μM) | inhibition at 1 µM (Arabidopsis seedlings [2]; Arabidopsis thaliana, read-out: inhibition of hypocotyl growth (reduction in hypocotyl length)) [%] | Striga seed germinating activity after day 3 in sand (Striga seeds; sand, 30°C, after day 3)
1 | CC1=C(C)C(O/C=C(\C)C=O)OC1=O (stereo not shown) [AR8, reference compound] | 9% | 0.99 | 690 | 6.9 ± 0.97 | did not lead to a significant effect | 5.6 | did not lead to a significant effect | slightly less stability than GR24 and MP26 but more than MP13 | completely lost its ability to induce Striga germination | – | – | – | – | – | – | –
2 | CC1=CC(O/C=C(\C)C=O)OC1=O (stereo not shown) [MP13, (E)-2-methyl-3-[(4-methyl-5-oxo-2,5-dihydrofuran-2-yl)oxy]acrylaldehyde] | 37–70% | 0.11 | 0.64 | 3.87 ± 0.9 | did not lead to a significant effect | 4.5 | did not lead to a significant effect | lowest stability throughout the whole 3 weeks of analysis | 10% | 23 | around 60% | complete loss of the activity | – | – | – | –
3 | COC(=O)/C=C/C(C)=C/OC1C=C(C)C(=O)O1 (stereo not shown) [MP26, (2E,4E)-methyl 4-methyl-5-(4-methyl-5-oxo-2,5-dihydrofuran-2-yloxy)penta-2,4-dienoate] | 37–70% | 0.098 | 0.35 | 5.3 ± 0.71 | – | 2.5 | – | equal stability as GR24 up to 6 days of incubation | 27% | 57 | around 60% | – | 43 | significant increase in plant height | 15 | not detectable
